According to US9446007B2, “Methods for maintaining or improving health, well-being and/or a physiological function in a subject” (DYNAMIS THERAPEUTICS, INC., priority 2012, dated 2016):

How the values were obtained:
[1] = test system: advanced glycation end products (AGE products); assay: Rat study: advanced glycation end product in skin (fluorescence ratio); type: in vivo, Sprague-Dawley rat; conditions: 32 weeks; for Mean AGE/Total Protein in skin: water 0.594 ± 0.173; for decrease of AGE product in the skin vs untreated rats: not statistically significant
Description: At the end of 32 weeks the ratio of advanced glycation end products (AGE products) to total protein was determined in the skin using the ratio of fluorescence measurements. A 3 cm^2 biopsy was taken from the shaved dorsal surface of the rats. The dermis was separated from the epidermis via immersion in water at 55° C. for 30 seconds, followed by gentle scraping of epidermis. The dermis was placed onto a wire screen cut to fit diagonally into fluorescence spectrometer. Fluorescence was recorded on PE 650-40 fluorescence spectrometer using front surface (“diagonal”) geometry. Fluorescence intensities were monitored at excitation/emission wavelengths of 270/300 nm, 270/330 nm, 270/360 nm, 270/400 nm, 325/400 nm, 270/450 nm and 370/450 nm. For direct comparison at the same excitation wavelength, ratios of I(270/330 nm) to I(270/450 nm) were recorded. These ratios were corrected for different instrumental responses at 330 and 450 nm.

[2] = test system: SV129 mice; assay: Strength testing in mice (inverted metal grid); type: in vivo; conditions: 18 mM meglumine hydrochloride in drinking water, 6 weeks; n=15; control 6.3±3.4; p=0.0006
Description: The grip strength test is a widely-used non-invasive method designed to evaluate mouse limb strength that has been used to investigate the effects of neuromuscular disorders and compound under testing. It is based on the natural tendency of the mouse to grasp a bar or grid when it is suspended by the tail. During this test the mouse grips with both forelimbs (or hind-limbs) a single bar or a mesh. There are three kinds of grip strength tests used: Mesh Grip Test, Wire Grip Test, and Automatic Grip Strength (GS Meter). The Mesh Grip Test measures the ability of the mouse to remain clinging to an inverted or tilted surface such as a wire grid or a cage lid for a period of time, usually up to 1 minute; the Wire Grip Test measures the ability of the mouse to hang on a wire with its forepaws for a preset length of time or until grip fails, while in the Automatic Grip Strength the mouse grasps a horizontal metal bar or grid while is pulled by the tail. The bar or grid is attached to a force transducer that peak pull-force achieved on its digital display. A group of SV129 mice (n=15) and a group of mice treated with 18 mM meglumine hydrochloride in their drinking water (n=15) for 6 weeks were tested for the ability to hold on to an inverted metal grid. The length of time before falling off the grid was averaged, and the standard error was calculated.

[3] = test system: imidazolone; assay: Rat study: 3DG adduct (imidazolone) levels in skin, fluorescent immunohistochemistry; type: in vivo, Sprague-Dawley rat; conditions: 50 mM, 32 weeks
Description: Eighteen male Sprague-Dawley rat (ACE) weighing 150-175 g were divided into 3 groups (n=6) and fed a normal diet supplemented with 0 mM, 25 mM, or 75 mM meglumine in the drinking water for 32 weeks. The presence of imidazolone, a 3DG-derived adduct formed from the reaction of 3DG and arginine was measured by fluorescent immunohistochemistry, using a monoclonal antibody to imidazolone, AG-1 (T. Niwa). A piece of skin from each rat on water and 50 mM meglumine was fixed in formalin, and thin sections were treated with AG-1 antibody and then a fluorescent second antibody, and each slide was scanned using a fluorescence microscope. The total florescence due to imidazolone over each slide was measured.

[4] = test system: imidazolone; assay: Rat study: 3DG adduct (imidazolone) levels in kidney tubules and glomeruli; type: in vivo, Sprague-Dawley rat; conditions: 50 mM, 32 weeks
Description: Eighteen male Sprague-Dawley rat (ACE) weighing 150-175 g were divided into 3 groups (n=6) and fed a normal diet supplemented with 0 mM, 25 mM, or 75 mM meglumine in the drinking water for 32 weeks. The 3DG adduct imidazolone was measured in kidney tubules and glomeruli by fluorescent immunohistochemistry using a monoclonal antibody to imidazolone, AG-1 (T. Niwa). Kidneys from each rat on water or 50 mM meglumine were placed in formalin, and thin sections were prepared. Each slide was treated with AG-1 and then a fluorescent second antibody, and then scanned using a fluorescence microscope. The total florescence due to imidazolone over each structure measured.

[5] = test system: 3-Deoxyglucosone (3DG); assay: Mice study: urine 3-deoxyglucosone (3DG) levels, GC-MS; type: in vivo, C57BL/6 male mice; conditions: 10, 40 or 75 mM in drinking water; age 103 weeks; vs control animals
Description: (§1) A group of sixteen C57BL/6 male mice at 12 weeks of age were distributed into 4 groups (n=4 each). Animals were fed a normal diet supplemented with 0 mM, 10 mM, 40 mM, or 75 mM meglumine in the drinking water. The approximate doses of meglumine were 537 mg/kg/day, 2,146 mg/kg/day, and 4,027 mg/kg/day for animals treated with, respectfully, 10 mM, 40 mM and 75 mM meglumine.
Urine was collected from animals (n=3 for all groups, except n=4 for 75 mM meglumine) at the age of 103 weeks and 3DG levels were measured using GC-MS with an internal U-[^13C]-3DG standard (FIG. 2). Prior to analysis, urine samples were treated with 2,3-diaminonapthalene overnight to derivatize 3DG, and then extracted with ethyl acetate. Urinary creatinine levels were measured with a reagent kit from Oxford Biochemicals. The 3DG/creatinine ratio (±standard deviation) is illustrated in FIG. 2.

[6] = test system: isoprostane; assay: Rat study: urinary isoprostane levels, competitive ELISA; type: in vivo, Sprague-Dawley rat; conditions: 50 mM, 32 weeks
Description: […] Rat urine from 32 weeks was measured for the presence of isoprostane, a marker for oxidative stress using a competitive ELISA (Oxford Biochemicals, Oxford Mich.). All values were normalized to creatinine levels to control for differences in urine volume. Creatinine was measured using a kit from Oxford Biochemicals.

[7] = test system: 3DG; assay: Rat study: urinary 3DG levels, GC-MS; type: in vivo, Sprague-Dawley rat; conditions: 50 mM, 32 weeks
Description: The level of 3DG was measured in the urine of the rats at 32 weeks. 3DG levels were measured by GC-MS by reacting 0.1 ml of sample, to which 20 picomoles of [U-^13C] labeled 3DG had been added as an internal standard, with 1 ml of 1 mM 2,3-diaminonaphthalene (DAN) for 24 hours at room temperature. Following reaction with DAN, the sample was extracted with four volumes of ethyl acetate and then dried. The residue was dissolved in 50 μl of N-methyl-N-(trimethylsilyl)trifluoroacetamide and heated at 65° C. for 30 min. 2 μl was analyzed by GC-MS. Levels of 3DG were normalized to creatinine levels measured with reagents from Oxford Biochemicals.

[8] = test system: C57BL/6 male mice; assay: Mice study: longevity; type: in vivo; conditions: for average lifespan (±standard deviation): control 771±214.6
Description: as §1
Animals were observed daily, and date of death was noted if applicable. Four animals were found dead in their cages, and twelve were euthanized after showing symptoms of distress (hunched posture, weight loss, decreased food intake).
The average lifespan (±standard deviation) for the mice treated with 0 mM, 10 mM, 40 mM and 75 mM meglumine was 771±214.6 days, 834±124 days, 927±80.3 days and 1,027±117.5 days. Animals treated with 10 mM, 40 mM and 75 mM lived, respectively, 8.2%, 20.2%, and 33.2% longer than the control animals.

[9] = test system: blood glucose; assay: Glucose tolerance test; type: in vivo, KK.Cg-A^y/+/J yellow mice; conditions: mutant yellow mice; 18 mM meglumine hydrochloride in water for 16 weeks; 15, 30, 60 and 120 min; vs water
Description: Mutant KK.Cg-A^y/+/J “yellow mice” (which are prone to developing diabetes and obesity) and control KK.Cg-A^+/+/J “black mice” were fed with water or water supplemented with 18 mM meglumine hydrochloride for 16 weeks. As a comparison group, SV129 normoglycemic mice were fed with water. The animals were then fasted overnight and blood glucose measured (time 0 min). The animals were injected with glucose, and blood glucose levels measured after 15 min, 30 min, 60 min and 120 min. The results are illustrated in FIG. 8.

CNC[C@H](O)[C@@H](O)[C@H](O)[C@H](O)CO [meglumine, (2R,3R,4R,5S)-6-methylaminohexane-1,2,3,4,5-pentol]
Mean AGE/Total Protein in skin ([1]; 25 mM in drinking water): 0.486 ± 0.187 | decrease of AGE product in the skin vs untreated rats ([1]; 25 mM): 10% | Mean AGE/Total Protein in skin ([1]; 50 mM in drinking water): 0.235 ± 0.067 | decrease of AGE product in the skin vs untreated rats ([1]; 50 mM): 60% | length of time that the animals could hold on to the grid [2]: 17.8 ± 0.6 s | less imidazolone in skin than rats on water ([3]; not statistically significant): 25% | Fluorescence (imidazolone) in skin ([3]; water 790567 ± 83833): 593320 ± 87404 | less imidazolone in glomeruli than rats on water ([4]; not statistically significant): 24% | less imidazolone in tubules than rats on water ([4]; not statistically significant): 13% | Fluorescence in Tubules (imidazolone) ([4]; water 47,081,228 ± 6,407,142): 40,158,431 ± 3,644,819 | Fluorescence in Glomeruli (imidazolone) ([4]; water 85,039,251 ± 13,401,970): 64,376,501 ± 7,548,981 | urine 3DG/creatinine ratio [5]: less than the control animals | urinary isoprostane levels lower than in rats on water ([6]; not statistically significant): 22% | urinary Isoprostane ([6]; water 2.65 ± 0.236): 2.05 ± 0.283 ng/mL | urinary 3DG levels lower than in rats on water [7]: 33% | urinary 3DG ([7]; water 0.0891 ± 0.007): 0.0598 ± 0.004 µM | lived longer than the control animals ([8]; 10 mM in drinking water): 8.2% | average lifespan (±standard deviation) ([8]; 10 mM in drinking water (537 mg/kg/day)): 834 ± 124 days | lived longer than the control animals ([8]; 40 mM in drinking water): 20.2% | average lifespan (±standard deviation) ([8]; 40 mM in drinking water (2,146 mg/kg/day)): 927 ± 80.3 days | lived longer than the control animals ([8]; 75 mM in drinking water): 33.2% | average lifespan (±standard deviation) ([8]; 75 mM in drinking water (4,027 mg/kg/day)): 1,027±117.5 days | blood glucose levels after glucose injection [9]: decreased blood glucose levels
